Where “and” joins values, the source holds several entries; their conditions need not be identical. Equal entries are not always repeated. Toxic doses and inconclusive results are not listed.

Drawing on PubChem BioAssay AID204 (DTP/NCI, 2004), this text covers T/C for 29 compounds.

The test system of this assay is BDF1 mice, P288 methotrexate-resistant leukemia, survival T/C. Kind of assay: NCI In Vivo Anticancer Drug Screen. Data for tumor model P288 Lymphocytic Leukemia resistant to methotrexate; NSC 740 (intraperitoneal) in B6D2F1 (BDF1) mice. As to conditions: endpoint: median survival time, schedule: Q01DX010 (ip), higher = longer survival. The method, then: The antitumor activity of compounds was measured in mice bearing transplantable tumors. Survival or tumor size were measured and the results are expressed as the measurement made in the treated group (T) divided by the measurement made in the vehicle treated control group (C). The tumor model used in this assay is P288 Lymphocytic Leukemia resistant to methotrexate; NSC 740 (intraperitoneal) in B6D2F1 (BDF1) mice

Where [1] appears, read: dose: 15.0 mg/kg/injection, vehicle: saline.
[2] abbreviates: dose: 30.0 mg/kg/injection, vehicle: saline.
The mark [3] stands for this setting: dose: 60.0 mg/kg/injection, vehicle: saline.
Setting [4] is: dose: 120.0 mg/kg/injection, vehicle: saline.
The mark [5] stands for this setting: dose: 25.0 mg/kg/injection, vehicle: saline.
Setting [6] is: dose: 5.0 mg/kg/injection, vehicle: saline.
[7] abbreviates: dose: 10.0 mg/kg/injection, vehicle: saline.
Where [8] appears, read: dose: 20.0 mg/kg/injection, vehicle: saline.
Setting [9] is: dose: 40.0 mg/kg/injection, vehicle: saline.
The mark [10] stands for this setting: dose: 80.0 mg/kg/injection, vehicle: saline.
The mark [11] stands for this setting: dose: 0.5 mg/kg/injection, vehicle: saline.
The mark [12] stands for this setting: dose: 1.0 mg/kg/injection, vehicle: saline.
Setting [13] is: dose: 2.0 mg/kg/injection, vehicle: saline.
Setting [14] is: dose: 4.0 mg/kg/injection, vehicle: saline.
The mark [15] stands for this setting: dose: 8.0 mg/kg/injection, vehicle: saline.
Setting [16] is: dose: 62.5 mg/kg/injection, vehicle: saline.
[17] abbreviates: dose: 125.0 mg/kg/injection, vehicle: saline.
Setting [18] is: dose: 250.0 mg/kg/injection, vehicle: saline.
Where [19] appears, read: dose: 500.0 mg/kg/injection, vehicle: saline.
[20] abbreviates: dose: 1.5 mg/kg/injection, vehicle: saline.
The mark [21] stands for this setting: dose: 6.0 mg/kg/injection, vehicle: saline.
Where [22] appears, read: dose: 3.13 mg/kg/injection, vehicle: saline.
[23] abbreviates: dose: 6.25 mg/kg/injection, vehicle: saline.
The mark [24] stands for this setting: dose: 12.5 mg/kg/injection, vehicle: saline.
The mark [25] stands for this setting: dose: 200.0 mg/kg/injection, vehicle: saline.

For `C[N+](C)(C)c1ncnc2nc[nH]c12`, the T/C under setting [1] is 90 % of control; the T/C under setting [2] is 100 % of control; the T/C under setting [3] was 90 % of control and 100 % of control; the T/C under setting [4] was 105 % of control and 113 % of control.

Take `Nc1nc(N)c2nc(CNc3ccc(C(=O)NC(CCC(=O)O)C(=O)O)cc3)cnc2n1` (stereo not given): the T/C (dose: 0.03 mg/kg/injection, vehicle: other) was 90 % of control and 111 % of control; the T/C (dose: 0.05 mg/kg/injection, vehicle: other) is 100 % of control; the T/C (dose: 0.1 mg/kg/injection, vehicle: other) was 100 % of control; the T/C (dose: 0.2 mg/kg/injection, vehicle: other) was 110 % of control and 111 % of control.

For the compound `COc1cc(-c2ccc(Nc3ccccc3C(=O)O)c(OC)c2)ccc1Nc1ccccc1C(=O)O`, the T/C by setting is: under setting [5], 154 % of control; (dose: 50.0 mg/kg/injection, vehicle: saline) 163 % of control; (dose: 100.0 mg/kg/injection, vehicle: saline) 172 % of control.

In the case of `O=c1[nH]c(=O)n(C2CC(O)C(CO)O2)cc1F` (stereo not given), the T/C reads like this: under setting [6], 95 % of control; under setting [7], 108 % of control and 111 % of control; under setting [8], 108 % of control and 115 % of control; under setting [9], 116 % of control and 123 % of control; under setting [10], 92 % of control.

As to `NC(=O)N(CCCl)N=O`, the T/C by setting is: under setting [11], 210 % of control and 213 % of control; under setting [12], 300 % of control; under setting [13], 168 % of control and 300 % of control; under setting [14], 90 % of control.

Take `CCCCn1cnc2c(=S)nc[nH]c21`: the T/C reads like this: under setting [13], 86 % of control; under setting [14], 86 % of control; under setting [15], 90 % of control.

`OCC1OC(n2cnc3c(Cl)ncnc32)C(O)C1O` (stereo not given): the T/C by setting is: under setting [16], 95 % of control and 100 % of control; under setting [17], 90 % of control and 100 % of control; under setting [18], 90 % of control and 105 % of control; under setting [19], 90 % of control.

For `CC(=O)N(C)C`, the T/C reads like this: under setting [16], 95 % of control and 120 % of control; under setting [17], 90 % of control and 95 % of control; under setting [18], 105 % of control and 110 % of control; under setting [19], 110 % of control.

As for `S=P(N1CC1)(N1CC1)N1CC1`, the T/C runs as follows: (dose: 0.75 mg/kg/injection, vehicle: saline) 100 % of control and 111 % of control; under setting [20], 111 % of control; under setting [21], 116 % of control and 120 % of control.

Take `OCC1OC(n2cnc3c(=S)nc[nH]c32)C(O)C1O` (stereo not given): the T/C was 100 % of control and 105 % of control under setting [8]; 95 % of control and 105 % of control under setting [9]; 100 % of control and 110 % of control under setting [10]; 100 % of control and 105 % of control (dose: 160.0 mg/kg/injection, vehicle: saline).

Turning to `Oc1cc(CN(CCCl)CCCl)c(O)cc1CN(CCCl)CCCl`, the T/C runs as follows: (dose: 0.63 mg/kg/injection, vehicle: saline) 104 % of control and 115 % of control; (dose: 1.25 mg/kg/injection, vehicle: saline) 121 % of control; under setting [6], 115 % of control.

In the case of `CS(=O)(=O)OCCN(CCOS(C)(=O)=O)c1ccc(N=O)cc1`, the T/C under setting [11] is 120 % of control.

On to `Cc1cc(N(CCCl)CCCl)ccc1N=Nc1ccccc1C(=O)O`, for which the T/C by setting is: under setting [6], 104 % of control and 105 % of control; under setting [7], 109 % of control and 110 % of control; under setting [8], 115 % of control.

As to `CN(N=O)C(N)=O`, the T/C is 110 % of control under setting [7], 150 % of control under setting [8] and 95 % of control under setting [9].

`O=c1[nH]cc(F)c(=O)[nH]1`: the T/C under setting [6] was 108 % of control; the T/C under setting [8] was 159 % of control; the T/C under setting [9] is 91 % of control and 95 % of control.

For `C[n+]1c2ccccc2nc2c(N)cc(N)cc21`, under setting [15], the T/C is 115 % of control.

`C[C@H]1C(=O)O[C@@H]2CCN3CC=C(COC(=O)[C@](C)(O)[C@@]1(C)O)[C@H]23`: the T/C is 100 % of control and 103 % of control under setting [22]; 91 % of control and 111 % of control under setting [23]; 91 % of control under setting [24]; 91 % of control and 96 % of control under setting [5].

Turning to `NC(Cc1c[nH]c2ccc(N(CCCl)CCCl)cc12)C(=O)O` (stereo not given), the T/C under setting [11] is 104 % of control.

For the compound `Nc1nc2n[nH]nc2c(=O)[nH]1`, the T/C was 110 % of control (dose: 25.0 mg/kg/injection, vehicle: alkali diluted with saline) and 112 % of control (dose: 50.0 mg/kg/injection, vehicle: alkali diluted with saline).

With `N#CCSc1ncnc2nc[nH]c12`, the T/C is 91 % of control under setting [1]; 94 % of control and 95 % of control under setting [2]; 91 % of control and 94 % of control under setting [3]; 94 % of control under setting [4].

For `[I][Hg][CH2]C1COC([CH2][Hg][I])CO1` (stereo not given), the T/C (dose: 1.56 mg/kg/injection, vehicle: saline) was 86 % of control; the T/C under setting [22] is 95 % of control; the T/C under setting [23] is 100 % of control; the T/C under setting [24] was 100 % of control; the T/C under setting [5] is 87 % of control.

Take `O=C(Nc1ccc(NC(=O)Nc2cccc(C3=NCCN3)c2)cc1)Nc1cccc(C2=NCCN2)c1`: the T/C under setting [3] was 200 % of control and 225 % of control; the T/C under setting [4] was 250 % of control and 322 % of control; the T/C (dose: 240.0 mg/kg/injection, vehicle: saline) is 183 % of control and 235 % of control; the T/C (dose: 480.0 mg/kg/injection, vehicle: saline) was 100 % of control and 120 % of control.

Take `CN(C)CC(=O)c1ccc(O)c(O)c1`: the T/C was 110 % of control and 113 % of control under setting [25]; 120 % of control and 122 % of control (dose: 300.0 mg/kg/injection, vehicle: saline); 115 % of control and 118 % of control (dose: 450.0 mg/kg/injection, vehicle: saline); 122 % of control (dose: 675.0 mg/kg/injection, vehicle: saline).

`CO[C@H](C(=O)[C@@H](O)[C@@H](C)O)[C@@H]1Cc2cc3cc(OC4CC(OC5CC(O)C(O)C(C)O5)C(O)C(C)O4)c(C)c(O)c3c(O)c2C(=O)[C@H]1OC1CC(OC2CC(OC3CC(C)(O)C(O)C(C)O3)C(O)C(C)O2)C(O)C(C)O1` (stereo not given in full): the T/C is 95 % of control (dose: 0.25 mg/kg/injection, vehicle: saline); 95 % of control under setting [11]; 104 % of control under setting [12].

Turning to `CN(C)c1ccc(/C=C\c2ccnc3ccccc23)cc1`, the T/C by setting is: under setting [20], 100 % of control; (dose: 3.0 mg/kg/injection, vehicle: saline) 100 % of control; under setting [21], 100 % of control; (dose: 12.0 mg/kg/injection, vehicle: saline) 105 % of control.

For `CCCCNc1ncnc2c1cnn2C`, the T/C reads like this: (dose: 15.6 mg/kg/injection, vehicle: saline) 105 % of control; (dose: 31.3 mg/kg/injection, vehicle: saline) 110 % of control; under setting [16], 95 % of control and 110 % of control.

As to `O[C@H](CN1CC1)[C@@H](O)CN1CC1`, the T/C (dose: 62.5 micrograms/kg/injection, vehicle: saline) is 100 % of control; the T/C (dose: 250.0 micrograms/kg/injection, vehicle: saline) was 155 % of control and 181 % of control.

Regarding `CS(=O)(=O)OCC(O)C(O)COS(C)(=O)=O` (stereo not given), the T/C is 86 % of control under setting [25]; 93 % of control (dose: 400.0 mg/kg/injection, vehicle: saline); 100 % of control (dose: 800.0 mg/kg/injection, vehicle: saline).

Turning to `O=c1cn[nH]c(=O)[nH]1`, the T/C is, setting by setting: under setting [16], 90 % of control and 110 % of control; under setting [17], 105 % of control and 110 % of control; under setting [18], 105 % of control and 120 % of control; under setting [19], 110 % of control and 120 % of control.
